Test results as given in the supplement of paper PMC13380429.

Key:
Settings in all cases: 72 h
Caco-2 [1] = assay: cell viability relative to DMSO; higher = less toxic
Calu-3 [2] = assay: as above
HepG2 [3] = assay: as above
U2OS [4] = assay: as above
Vero E6 [5] = assay: as above
Caco-2 [6] = assay: relative viability EC50 (midpoint between 100% and the lowest measured viability); higher = less toxic
Calu-3 [7] = assay: as above
HepG2 [8] = assay: as above
U2OS [9] = assay: as above
Vero E6 [10] = assay: as above
Caco-2 [11] = assay: drug sensitivity score (DSS) for viability; higher = more toxic; extreme values may be limits of the assay
Calu-3 [12] = assay: as above
HepG2 [13] = assay: as above
U2OS [14] = assay: as above
Vero E6 [15] = assay: as above

| Structure (SMILES) | cell viability (Caco-2 [1]; 1 nM) [%] | cell viability (Caco-2 [1]; 10 nM) [%] | cell viability (Caco-2 [1]; 100 nM) [%] | cell viability (Caco-2 [1]; 1000 nM) [%] | cell viability (Caco-2 [1]; 10000 nM) [%] | cell viability (Calu-3 [2]; 1 nM) [%] | cell viability (Calu-3 [2]; 10 nM) [%] | cell viability (Calu-3 [2]; 100 nM) [%] | cell viability (Calu-3 [2]; 1000 nM) [%] | cell viability (Calu-3 [2]; 10000 nM) [%] | cell viability (HepG2 [3]; 1 nM) [%] | cell viability (HepG2 [3]; 10 nM) [%] | cell viability (HepG2 [3]; 100 nM) [%] | cell viability (HepG2 [3]; 1000 nM) [%] | cell viability (HepG2 [3]; 10000 nM) [%] | cell viability (U2OS [4]; 1 nM) [%] | cell viability (U2OS [4]; 10 nM) [%] | cell viability (U2OS [4]; 100 nM) [%] | cell viability (U2OS [4]; 1000 nM) [%] | cell viability (U2OS [4]; 10000 nM) [%] | cell viability (Vero E6 [5]; 1 nM) [%] | cell viability (Vero E6 [5]; 10 nM) [%] | cell viability (Vero E6 [5]; 100 nM) [%] | cell viability (Vero E6 [5]; 1000 nM) [%] | cell viability (Vero E6 [5]; 10000 nM) [%] | relative viability EC50 (Caco-2 [6]) [nM] | relative viability EC50 (Calu-3 [7]) [nM] | relative viability EC50 (HepG2 [8]) [nM] | relative viability EC50 (U2OS [9]) [nM] | relative viability EC50 (Vero E6 [10]) [nM] | drug sensitivity score (Caco-2 [11]) | drug sensitivity score (Calu-3 [12]) | drug sensitivity score (HepG2 [13]) | drug sensitivity score (U2OS [14]) | drug sensitivity score (Vero E6 [15]) |
| --- | --- | --- | --- | --- | --- | --- | --- | --- | --- | --- | --- | --- | --- | --- | --- | --- | --- | --- | --- | --- | --- | --- | --- | --- | --- | --- | --- | --- | --- | --- | --- | --- | --- | --- | --- |
| Oc1cc2c(cc1O)[C@H](Cc1cccc3ccccc13)NCC2 [CKD-712] | 88.6 | 94.2 | 105 | 98.4 | 92.4 | 105 | 95 | 108 | 105 | 102 | 106 | 101 | 97.9 | 99.7 | 84.8 | 101 | 93.8 | 98.6 | 112 | 96.6 | 102 | 100 | 100 | 99 | 95.7 | > 10000 | > 10000 | > 10000 | > 10000 | > 10000 | 0 | 0 | 0.3 | 0 | 0 |
| CCC[C@H](Nc1nc(-c2ccc(NC(=O)NCC)c(OC)c2)ncc1C)c1cccnc1 [CYT-997] | 97.9 | 93.5 | 84 | 42.6 | 38.2 | 99.4 | 96 | 54.4 | 37 | 37.5 | 101 | 106 | 51.8 | 36.3 | 33.3 | 97.2 | 102 | 45.6 | 19.1 | 18.2 | 95.7 | 100 | 98.5 | 22 | 23.7 | 198 | 54.7 | 68.7 | 76.1 | 303 | 12.4 | 17.4 | 17.9 | 21.3 | 14.4 |
| O=C1Nc2ccc(Cl)c3c2C1(CCCCN1CC=C(c2ccc(Cl)cc2)CC1)CCC3 (stereo not given) [DR-4485] | 103 | 95.3 | 99.6 | 92.3 | 4.8 | 105 | 87.6 | 103 | 99.9 | 1.7 | 93.7 | 100 | 94.1 | 102 | -0.2 | 96.2 | 97.5 | 98.6 | 94.7 | 2.4 | 100 | 96.7 | 92.9 | 91.1 | 42.5 | 2500 | 3160 | 3270 | 2740 | 1950 | 6.5 | 5.5 | 5.4 | 6.2 | 4.6 |
